# Assay results as given in US6512000B1, “Aminocarbonyl-substituted benzimidazoles having tryptase-inhibitory activity” (Boehringer Ingelheim Pharma KG, priority 1999, dated 2003).
# Counter-ions that a name gives are not always drawn.
# Biological target: T1, rh beta tryptase (Homo sapiens, UniProt P20231)
# T1 construct: purchased Promega
# Assay: Tryptase inhibition test (cleavage of N-p-tosyl-Gly-Pro-Lys-para-nitroaniline, p-nitroaniline measured at 405 nm)
# Type: biochemical
# Conditions: concentration at which 50% of the tryptase enzyme activity is inhibited; substrate 0.6 mM, pH 7.4, 37° C.
# How it was run: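 Recombinant human beta tryptase (0.91 U/ml) in 100 mM Tris HCl pH 7.4 with 5 mM calcium and 100 mg/ml heparin; compounds pre-incubated 5 min, then 0.6 mM tosyl-Gly-Pro-Lys-pNA added, 5 min at 37 °C. p-Nitroaniline read at 405 nm; % inhibition at 10 μM, IC50 determined when inhibition exceeded 70%.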
# T1 sequence (P20231 31-275): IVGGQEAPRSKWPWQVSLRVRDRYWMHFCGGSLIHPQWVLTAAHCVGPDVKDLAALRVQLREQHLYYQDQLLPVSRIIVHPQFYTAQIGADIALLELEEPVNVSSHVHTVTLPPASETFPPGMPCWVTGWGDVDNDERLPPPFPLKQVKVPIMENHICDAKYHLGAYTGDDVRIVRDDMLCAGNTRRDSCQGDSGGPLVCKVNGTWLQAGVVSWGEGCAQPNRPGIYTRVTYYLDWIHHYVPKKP
row,Compound,IC50 [nM]
1,"N=C(N)c1ccc(CCc2nc3cc(C(=O)N(Cc4ccc(CN)cc4)Cc4cccc(C(F)(F)F)c4)ccc3n2CC2CC2)cc1 [Example 202, 2-[2-(4-amidinophenyl)ethyl]-1-cyclopropylmethyl-benzimidazol-5-yl-carboxylic acid-N-[4-(amino-methyl)-benzyl]-N-(3-trifluoromethylbenzyl)-amide]",822
2,"Cn1c(CCc2ccc(C(=N)N)cc2)nc2cc(C(=O)N(CCN)C3CCCCC3)ccc21 [Example 37, 2-[2-(4-Amidinophenyl)-ethyl]-1-methyl-benzimidazol-5-yl-carboxylic Acid-[N-(2-amino-ethyl)-N-cyclohexyl-amide]-dihydrochloride]",68
3,"Cn1c(CCc2ccc(CN)cc2)nc2cc(C(=O)N(CCC(c3ccccc3)c3ccccc3)Cc3ccc(CN)cc3)ccc21 [Example 43, 2-[2-(4-Aminomethyl-phenyl)-ethyl]-1-methyl-benzimidazol-5-yl-carboxylic Acid-N-(4-aminomethylbenzyl)-N-(3,3-diphenylpropyl)-amide-dihydrochloride]",319
4,"COc1cccc(CN(CCN)C(=O)c2ccc3c(c2)nc(CCc2ccc(C(=N)N)cc2)n3CC2CC2)c1 [Example 266, 2-[2-(4-amidinophenyl)ethyl]-1-cyclopropylmethyl-benzimidazol-5-yl-carboxylic acid-N-(2-aminoethyl)-N-(3-methoxybenzyl)-amide]",641
5,Cn1c(CCc2ccc(C(=N)N)cc2)nc2cc(C(=O)N(CCN(Cc3ccccc3)Cc3ccccc3)c3ccccc3)ccc21 [Example 19],32
6,"Cn1c(CCc2ccc(C(=N)N)cc2)nc2cc(C(=O)N(CCC(=N)N)Cc3cccnc3)ccc21 [Example 10, 2-[2-(4-Amidinophenyl)-ethyl]-1-methyl-benzimidazol-5-yl-carboxylic Acid-N-(2-amidinoethyl)-N-(3-pyridylmethyl)-amide-dihydrochloride]",316
7,"CCOCCCn1c(CCc2ccc(C(=N)N)cc2)nc2cc(C(=O)N(CCN)Cc3cccc(OC)c3)ccc21 [Example 262, 2-[2-(4-amidinophenyl)ethyl]-1-(3-ethoxypropyl)-benzimidazol-5-yl-carboxylic acid-N-(2-aminoethyl)-N-(3-methoxybenzyl)-amide]",284
8,"CCOc1cccc(N2CCN(C(=O)c3ccc4c(c3)nc(CCc3ccc(C(=N)N)cc3)n4C)CC2)c1 [Example 48, 2-[2-(4-Amidinophenyl)-ethyl]-1-methyl-benzimidazol-5-yl-carboxylic Acid-[N′-(3-ethoxyphenyl)-piperazide]]",147

# The remaining lines, values ahead:
row,IC50 [nM],Compound
1,51,"Cn1c(CCc2ccc(C(=N)N)cc2)nc2cc(C(=O)N(CCC(=N)N)c3ccccc3)ccc21 [Example 21, 2-[2-(4-Amidinophenyl)-ethyl]-1-methyl-benzimidazol-5-yl-carboxylic Acid-N-(2-amidinoethyl)-N-phenyl-amide-dihydrochloride]"
2,292,"CCOCCCn1c(CCc2ccc(C(=N)N)cc2)nc2cc(C(=O)N(Cc3ccc(CN)cc3)CC3CCCCC3)ccc21 [Example 150, 2-[2-(4-amidinophenyl)ethyl]-1-(3-ethoxypropyl)-benzimidazol-5-yl-carboxylic acid-N-[4-(amino-methyl)-benzyl]-N-cyclohexylmethyl-amide]"

# Same assay, conditions: inhibition of rh beta tryptase at 10 μM test substance; substrate N-p-tosyl-Gly-Pro-Lys-para-nitroaniline 0.6 mM, pH 7.4, 37° C., 5 minutes
Compound,inhibition at 10 µM [%],% Inhibition (10 μM) [%]
"N=C(N)c1ccc(CCc2nc3cc(C(=O)N(Cc4ccc(CN)cc4)Cc4ccccc4F)ccc3n2CCCNC(=O)Cc2ccccc2)cc1 [Example 216, 2-[2-(4-amidinophenyl)ethyl]-1-[3-(benzylcarbonylamino)-propyl]-benzimidazol-5-yl-carboxylic acid-N-[4-(amino-methyl)-benzyl]-N-(2-fluorobenzyl)-amide]",65,
"COc1cccc(CN(Cc2ccc(CN)cc2)C(=O)c2ccc3c(c2)nc(CCc2ccc(C(=N)N)cc2)n3CCCN2CCN(c3ccccc3C)CC2)c1 [Example 80, 2-[2-(4-amidinophenyl)ethyl]-1-{3-[4-(2-methylphenyl)-piperazin-1-yl]-propyl}-benzimidazol-5-yl-carboxylic acid-N-[4-(amino-methyl)-benzyl]-N-(3-methoxybenzyl)-amide]",53,
"N=C(N)c1ccc(CCc2nc3cc(C(=O)N(Cc4ccc(CN)cc4)Cc4cccc(C(F)(F)F)c4)ccc3n2CC2CC2)cc1 [Example 202, 2-[2-(4-amidinophenyl)ethyl]-1-cyclopropylmethyl-benzimidazol-5-yl-carboxylic acid-N-[4-(amino-methyl)-benzyl]-N-(3-trifluoromethylbenzyl)-amide]",58,
"N=C(N)c1ccc(CCc2nc3cc(C(=O)N(Cc4ccc(CN)cc4)CC4CCCCC4)ccc3n2CCCN2CCOCC2)cc1 [Example 161, 2-[2-(4-amidinophenyl)ethyl]-1-[3-(morpholin-4-yl)-propyl]-benzimidazol-5-yl-carboxylic acid-N-[4-(amino-methyl)-benzyl]-N-cyclohexylmethyl-amide]",56,
"CCCCN(CCN)C(=O)c1ccc2c(c1)nc(CCc1ccc(C(=N)N)cc1)n2CCCN1CCN(c2ccccc2C)CC1 [Example 288, 2-[2-(4-amidinophenyl)ethyl]-1-{3-[4-(2-methylphenyl)-piperazin-1-yl]-propyl}-benzimidazol-5-yl-carboxylic acid-N-(2-aminoethyl)-N-n-butyl-amide]",65,
2-[2-(4-amidinophenyl)ethyl]-1-[3-(benzylcarbonylamino)-propyl]-benzimidazol-5-yl-carboxylic acid-N-[4-(amino-methyl)-benzyl]-N-(3-pyridyl)-amide [Example 136],,74
"CCCCN(CCN)C(=O)c1ccc2c(c1)nc(CCc1ccc(C(=N)N)cc1)n2Cc1cccs1 [Example 291, 2-[2-(4-amidinophenyl)ethyl]-1-(2-thiophenyl-methyl)-benzimidazol-5-ylcarboxylic acid-N-(2-aminoethyl)-N-n-butyl-amide]",75,
"COC(=O)c1ccc(CN(Cc2ccc(CN)cc2)C(=O)c2ccc3c(c2)nc(CCc2ccc(C(=N)N)cc2)n3CC2CCCO2)cc1 (centres unmarked) [Example 450, 2-[2-(4-amidinophenyl)ethyl]-1-(tetrahydrofuran-2-yl-methyl)-benzimidazol-5-yl-carboxylic acid-N-[4-(amino-methyl)-benzyl]-N-[4-(methoxycarbonyl)-benzyl]-amide]",72,
"COc1cccc(CN(Cc2ccc(CN)cc2)C(=O)c2ccc3c(c2)nc(CCc2ccc(C(=N)N)cc2)n3CC2CC2)c1 [Example 74, 2-[2-(4-amidinophenyl)ethyl]-1-cyclopropylmethyl-benzimidazol-5-yl-carboxylic acid-N-[4-(amino-methyl)-benzyl]-N-(3-methoxybenzyl)-amide]",66,
"COc1cccc(CN(CCN)C(=O)c2ccc3c(c2)nc(CCc2ccc(C(=N)N)cc2)n3CC2CC2)c1 [Example 266, 2-[2-(4-amidinophenyl)ethyl]-1-cyclopropylmethyl-benzimidazol-5-yl-carboxylic acid-N-(2-aminoethyl)-N-(3-methoxybenzyl)-amide]",61,
"N=C(N)c1ccc(CCc2nc3cc(C(=O)N(CCN)Cc4ccccc4)ccc3n2CCCNC(=O)Cc2ccccc2)cc1 [Example 296, 2-[2-(4-amidinophenyl)ethyl]-1-[3-(benzylcarbonylamino)-propyl]-benzimidazol-5-yl-carboxylie acid-N-(2-aminoethyl)-N-benzyl-amide]",,51
"N=C(N)c1ccc(CCc2nc3cc(C(=O)N(CCN)CCCc4ccccc4)ccc3n2CC2CC2)cc1 [Example 362, 2-[2-(4-amidinophenyl)ethyl]-1-cyclopropylmethyl-benzimidazol-5-yl-carboxylic acid-N-(2-aminoethyl)-N-(3-phenylpropyl)-amide]",74,
"CCOCCCn1c(CCc2ccc(C(=N)N)cc2)nc2cc(C(=O)N(CCN)Cc3cccc(OC)c3)ccc21 [Example 262, 2-[2-(4-amidinophenyl)ethyl]-1-(3-ethoxypropyl)-benzimidazol-5-yl-carboxylic acid-N-(2-aminoethyl)-N-(3-methoxybenzyl)-amide]",58,

# Second part, the compound after the results:
inhibition at 10 µM [%],% Inhibition (10 μM) [%],Compound
68,,"N=C(N)c1ccc(CCc2nc3cc(C(=O)N(CCCc4ccccc4)Cc4ccc(CN)cc4)ccc3n2CCCN2CCOCC2)cc1 [Example 177, 2-[2-(4-amidinophenyl)ethyl]-1-[3-(morpholin-4-yl)-propyl]-benzimidazol-5-yl-carboxylic acid-N-[4-(amino-methyl)-benzyl]-N-(3-phenylpropyl)-amide]"
58,,"CCCCN(Cc1ccc(CN)cc1)C(=O)c1ccc2c(c1)nc(CCc1ccc(C(=N)N)cc1)n2Cc1cccs1 [Example 99, 2-[2-(4-amidinophenyl)ethyl]-1-(2-thiophenyl-methyl)-benzimidazol-5-yl-carboxylic acid-N-[4-(amino-methyl)-benzyl]-N-n-butyl-amide]"
60,,"CCOCCCn1c(CCc2ccc(C(=N)N)cc2)nc2cc(C(=O)N(Cc3ccc(CN)cc3)CC3CCCCC3)ccc21 [Example 150, 2-[2-(4-amidinophenyl)ethyl]-1-(3-ethoxypropyl)-benzimidazol-5-yl-carboxylic acid-N-[4-(amino-methyl)-benzyl]-N-cyclohexylmethyl-amide]"
55,,"N=C(N)c1ccc(CCc2nc3cc(C(=O)N(CCN)CCCc4ccccc4)ccc3n2Cc2cccs2)cc1 [Example 371, 2-[2-(4-amidinophenyl)ethyl]-1-(2-thiophenyl-methyl)-benzimidazol-5-yl-carboxylic acid-N-(2-aminoethyl)-N-(3-phenylpropyl)-amide]"
,52,"N=C(N)c1ccc(CCc2nc3cc(C(=O)N(CCN)Cc4cccc(C(F)(F)F)c4)ccc3n2CC2CC2)cc1 [Example 394, 2-[2-(4-amidinophenyl)ethyl]-1-cyclopropylmethyl-benzimidazol-5-yl-carboxyiic acid-N-(2-aminoethyl)-N-(3-trifluoromethylbenzyl)-amide]"
64,,"COC(=O)c1ccc(CN(Cc2ccc(CN)cc2)C(=O)c2ccc3c(c2)nc(CCc2ccc(C(=N)N)cc2)n3CCCNC(=O)Cc2ccccc2)cc1 [Example 440, 2-[2-(4-amidinophenyl)ethyl]-1-[3-(benzylcarbonylamino)-propyl]-benzimidazol-5-yl-carboxylic acid-N-[4-(amino-methyl)-benzyl]-N-[4-(methoxycarbonyl)-benzyl]-amide]"
59,,"CCCCN(CCN)C(=O)c1ccc2c(c1)nc(CCc1ccc(C(=N)N)cc1)n2CCc1ccccc1 [Example 283, 2-[2-(4-amidinophenyl)ethyl)-1-(2-phenylethyl)-benzimidazol-5-yl-carboxylic acid-N-(2-aminoethyl)-N-n-butyl-amide]"
57,,"N=C(N)c1ccc(CCc2nc3cc(C(=O)N(CCN)Cc4ccccc4)ccc3n2Cc2cccs2)cc1 [Example 307, 2-[2-(4-amidinophenyl)ethyl]-1-(2-thiophenyl-methyl)-benzimidazol-5-yl-carboxylic acid-N-(2-aminoethyl)-N-benzyl-amide]"
,64,2-[2-(4-amidinophenyl)ethyl]-1-(3-di-n-butylaminopropyl)-benzimidazol-5-yl-carboxylic acid-N-[4-(amino-methyl)-benzyl]-N-(3-pyridyl)-amide [Example 135]
